Source: patent publication EP0427747B1, “SUBSTITUTED PHENYLACETONITRILES USED TO OVERCOME RESISTANCE TO DRUGS IN ANTI-MALARIAL THERAPY” (priority 1988, dated 1990)
Structures can show the parent of a compound that is named as a salt.

How the values were obtained:
[1] = test system: humanen Erythrocyten, die mit resistenten Plasmodien (Pl. falciparum) infiziert waren; test: Test model I: radiolabelled hypoxanthine incorporation (microdilution technique), alone and in combination with the antimalarial; type: cell-based; settings: combination with Chloroquine; 1,0 = additivity, <0,5 = synergism
Source text: Alle Substanzen wurden zunächst alleine und dann in Kombination mit dem Antimalaria-Mittel an humanen Erythrocyten, die mit resistenten Plasmodien (Pl. falciparum) infiziert waren, getestet. Der Einbau von radioaktiv markiertem Hypoxanthin diente als Maß für das Wachstum der Parasiten. Nach der Microdilutions-Technik (Antimicrob. Agents Chemotherapy 16,710 (1979)), wurde dabei für die erfindungsgemäßen Substanzen allein keine oder nur eine geringe Hemmung des Hypoxanthin-Einbaus gefunden. In Kombination mit einem Malariamittel wurde dagegen eine deutlich synergistische Hemmung beobachtet. Die Auswertung erfolgte über den FIC-Index (eine mathematische Repräsentation eines Isobologramms). Der Wert 1,0 bedeutet Additivität der Wirkungen, ein Wert <0,5 Synergismus. Für R-Verapamil und Chloroquin erhält man den Wert 0,56. [formula] IC₅₀ = Konzentration der Prüfsubstanz, die eine 50 %ige Hemmung der Parasiten bewirkt. [A] = gemessene IC₅₀ der Substanzu A in Gegenwart einer definierten (z.B. 500 bis 125 000 ng/ml) Menge der Substanz B. [B] = gemessene IC₅₀ der Substanz B in Gegenwart einer definierten (z.B. 500 bis 125 000 ng/ml) Menge der Substanz A. IC50A = IC₅₀ der Substanz A alleine gegeben IC50B = IC₅₀ der Substanz B alleine gegeben.
Die folgenden Werte wurden in der Kombination mit Chloroquine bestimmt.

[2] = in vivo; settings: rat, iv
Source text: Das 3. Modell untersucht ebenfalls am Ganztier die Wirkung der Testsubstanz auf das Herz.
(§1) Angegeben ist jeweils, wieviel größer die Dosis der Testsubstanz sein darf als bei racemischem Verapamil, um den gleichen caridovasculären Effekt auszulösen.
(§2) Der Selektivitätsindex S der Tabelle ist das Produkt dieses Faktors mit dem AEI und beschreibt somit, um wieviel schwächer als beim racemischen Verapamil die cardiovasculären Effekte der Testsubstanz sind, wenn sie in der Resistenzbrechnung von Malariamitteln in equieffizienten Dosen eingesetzt werden.

[3] = test system: P. yoelii NS; test: Test model II: blood schizontocidal action in infected mice, 4-day treatment; type: in vivo, Plasmodium yoelii ssp; settings: for % Parasitämie: mice, daily dose 10,0 mg/kg test substance plus 0,3 mg/kg Chloroquin, s.c., 4 days, parasitaemia one day after treatment
Source text: Zur Bestätigung und weiteren Differenzierung der resistenzbrechenden Wirkung wurden Mäuse nach dem in Ann. Trop. Med. Parasit., 72, 23 (1978) beschriebenen Modell (vgl. auch Exp. Parasitol. 17, 89 (1965), Anm. Trop. Med. Parasit. 69, 155 (1975) mit parasitär befallenden Erythrocyten beimpft und 1 Tag nach der Injektion an vier aufeinanderfolgenden Tagen behandelt. Einen Tag nach der Behandlung wurde die Parasitämie bestimmt.
Eperythozoon-coccoides-freie, männliche, Schweizer Albino-Mäuse, Gewicht zwischen 18 und 20 g, werden für alle Prüfungen benutzt.
Sie werden in Räumen mit kontrollierter Temperatur (22° + 2°C) in Kunststoffkäfigen zu je 5 Mäusen pro Käfig gehalten.
P. yoelii NS, gewonnen aus P. yoelii N: mäßig resistent gegenüber Chloroquin. Erhaltung durch zyklische Passage durch Anopheles stephensi und unter medikamentöser Belastung in der Maus (60 mg/kg s.c. einmal während der Passage) (für nähere Erläuterung siehe Ann. Trop. Med. Parasit., 72, 23 (1978)).
Männliche Mäuse werden intravenös mit parasität befallenden Erythrozyten (10⁷) vom P. yoelli NS Stamm beimpft. Danach werden die Tiere an vier aufeinanderfolgenden Tagen beginnend am Tag der Infektion einmal täglich behandelt. Die Verbindungen werden mit ®Tween 80 in sterilem, destilliertem Wasser gelöst oder suspendiert und subkutan verabreicht. In Fällen, in denen sich die Zubereitung einer wäßrigen Lösung als äußerst schwierig erweist, wird die Prüfsubstanz zunächst in Dimethylsulfoxid gelöst. Danach werden wäßrige Verdünnungen zum Gebrauch hergestellt. Die Parasitämie wird am Tag nach der letzten Behandlung bestimmt. Die unterdrückung der Parasiten im Vergleich zur unbehandelten Kontrolle, wird mittels Probitanalyse der log-Dosis-Wirkungskurve berechnet.
Mäuse, die mit dem chloroquin-resistenten Plasmodium yoelii ssp infiziert waren, wurden mit Chloroquin über 4 Tage subkutan behandelt, wie unter II.2 beschrieben.
Einen Tag nach der Behandlung wurde die Parasitämie bestimmt und mit der Kontrolle verglichen.
Der AEI (Activity Enhancement Index) ist der Quotient aus der ED₉₀ für Chloroquin alleine und der ED₉₀ für Zusatz von 10 mg/kg Testsubstanz.

[4] = in vitro; settings: rat, aortic strip
Source text: (§3) Weiter umfaßt die Tabelle drei praxisübliche Testmodelle auf cardiovasculäre Effekte. Am Gefäßstreifen der Ratte (rat aortic strip) (1. Modell) wird die Dosis bestimmt, die zu einer 50 %igen Relaxation führt, sie ist ein Maß für die gefäßerweiternde und damit blutdrucksenkende Wirkung einer Substanz. Das 2. Modell untersucht die blutdrucksenkende Wirkung am Ganztier (Ratte), bei intravenöser Gabe).
as §1, §2

[5] = in vivo; settings: rat, iv; remark: listed apart in the source
Source text: as §3, §1, §2

[6] = test system: Gefäßstreifen der Ratte (rat aortic strip); test: in vitro
Source text: as §3, §1, §2

[7] = AEI relative to S,R-Verapamil = 1
[8] = Activity Enhancement Index: ED90 of Chloroquin alone divided by ED90 with addition of 10 mg/kg test substance

SMILES | FIC-Index [1] | EKG (AV-Block) Ratte i.v. ED [2] | AEI (10 mg/kg) [3, 7] | AEI (10 mg/kg) [3, 8] | % Parasitämie [3] | selectivity ratio [4] | Blutdrucksenkung ED₅₀ [5] | Ratten Aortenstreifen ED₅₀ [6] | selectivity ratio [2] | selectivity ratio [5]
COc1ccc(CCN(C)CCC[C@](C#N)(c2ccc(OC)c(OC)c2)C(C)C)cc1OC [R-Verapamil, reference compound] | 0,56 | 4,6 | 1,6x | 4,15 | 14,2% | 10.2 | – | – | – | –
CC(C)[C@@](C#N)(CCCN(C)CCc1ccccc1)c1ccccc1 [S-Emopamil, (-)-(S)-1,7-Bis-(phenyl)-3-methylaza-7-cyano-8-methyl-nonan-hydrochlorid] | 0,19 | 2,15 | 1,8x | 4,5 | 6,7% | 13.5 | 2,7 | 7,7 | – | –
COc1ccc(CCN(C)CCCC(C#N)(c2cc(OC)c(OC)c(OC)c2)C(C)C)cc1OC (single isomer, unassigned; (+)) [(+)-Gallopamil, (+)-1-(3,4-Dimethoxyphenyl)-3-methylaza-7-cyan-7-(3,4,5-trimethoxyphenyl)-8-methylnonan-hydrochlorid] | 0,53 | 4,6 | 1,7x | 4,4 | 8,6% | 21.6 | 3,4 | 12,6 | – | –
CC(C)C(C#N)(CCCNCCc1ccccc1)c1ccccc1.Cl (stereo not shown) [Noremopamil, 1,7-Bis-(phenyl)-3-aza-7-cyano-8-methyl-nonan-hydrochlorid] | 0,19 | 4,6 | 1,60x | 4,1 | – | 4.6 | 4,3 | 2,9 | 6.9 | 6.9
COc1ccc(CCN(C)CCCC(C#N)(c2ccc(OC)c(OC)c2)C(C)C)cc1OC (racemic) [S,R-Verapamil, Verapamil, reference compound] | – | = 1 | = 1 x | 2,56 | – | – | – | – | – | –
